According to publication PMC5397059, “Design, synthesis and structure-activity relationship study of wollamide B; a new potential anti TB agent” (PLoS ONE, 2017):
Converted amounts (≈) assume the structure as drawn. Like-named read-outs stand apart in the source and are kept apart here. Non-standard residues stand in square brackets, D forms with d. Residues, ends and D or L forms follow the SMILES beside them. *: point of attachment. dPhe(4-Cl) = N[C@H](Cc1ccc(Cl)cc1)C(=O)O; dOrn = NCCC[C@@H](N)C(=O)O; tBu = CC(C)(C)*

What was measured:
Mtb H37Rv = conditions: for MIC against Mtb H37Rv: duplicate, analogues; for antimycobacterial activity against Mtb H37Rv: at the maximum dose tested
[1] = Chemi-Luminescent Nitrogen Detection (CLND) kinetic solubility assay; assay type: physicochemical; conditions: phosphate buffered saline, pH 7.4; kinetic aqueous solubility by CLND; read-out: Solubility
Description: GSK in-house kinetic solubility assay: 5 μL of 10mM DMSO stock solution diluted to 100 uL with pH7.4 phosphate buffered saline, equilibrated for 1 hour at room temperature, filtered through Millipore Multiscreen HTS-PCF filter plates (MSSL BPC).
The filtrate is quantified by suitably calibrated flow injection CLND. The standard error of the CLND solubility determination is ±30 μM, the upper limit of the solubility is 500 μM when working from 10 mM DMSO stock solution.

[2] = Intrinsic clearance (CLint) assay, human liver microsomes; assay type: in vitro ADME; conditions: for CLint Human: human liver microsomes; for half-life at 0.5 µM: human, pooled human liver microsomes, pH 7.4, human liver microsomes, read-out: Microsomal t1/2 Human; for % LBF Human: liver blood flow; for CLpred Human: predicted metabolic clearance
Description: (§1) Pooled mouse and human liver microsomes are purchased from Xenotech. Microsomes (final protein concentration 0.5 mg/mL, MgCl2 (final concentration = 5 mM) and test compound (final substrate concentration = 0.5] M; final DMSO concentration = 0.5%) in 0.1 M phosphate buffer pH 7.4 are pre-incubated at 37°C prior to the addition of NADPH (final concentration = 1 mM) to initiate the reaction. The final incubation volume is 600 μL.
(§2) Control incubation is included for each compound tested where 0.1 M phosphate buffer pH 7.4 is added instead of NADPH (minus NADPH). One control compound is included with each species. All incubations are performed singularly for each test compound. Each compound is incubated for 45 minutes and samples (100 μL) of incubate are taken at 0, 5, 15, 30 and 45 min. The control (minus NADPH) is sampled at 30 min only. The reactions are stopped by the addition of sample to 200 μL Acetonitrile: Methanol 3:1 containing internal standard. The terminated samples are centrifuged at 2,500 rpm for 20 min at 4°C to precipitate the protein. Quantitative analysis: following protein precipitation, the samples were analyzed using specific LC-MS/MS conditions. Data analysis: from a plot of ln peak area ratio (compound peak area/internal standard peak area) against time, the gradient of the line was determined. Subsequently, half-life and intrinsic clearance were calculated using the equations below: Eliminationrateconstant(K)=(−gradient) Halflife(t1/2)(min)=0.693/K Cli(mL/min/gprotien)=V×0.693/t1/2 WhereV=Incubationvolume(mL/gmicrosomalprotien)

Chrom logD assay = assay type: physicochemical; conditions: pH 7.4, read-out: Log D
Description: The Chromatographic Hydrophobicity Index (CHI) values were measured using a reversed phase HPLC column (50 x 2 mmx 3 μMGemini NX C18, Phenomenex, UK) with fast acetonitrile gradient at starting mobile phase of 100% pH = 7.4 buffer. CHI values are derived directly from the gradient retention times by using a calibration line obtained for standard compounds. The CHI value approximates to the volume % organic concentration when the compound elutes. CHI is linearly transformed into ChromlogD by the formula: ChromlogD=0.0857CHI−2.00
The average error of the assay is ±3 CHI unit or ±0.25 ChromlogD.

human serum albumin = human serum albumin (Homo sapiens, UniProt P02768); experiment: Human serum albumin (HSA) binding assay; assay type: in vitro ADME; conditions: human serum albumin binding
Sequence of human serum albumin (P02768 25-609): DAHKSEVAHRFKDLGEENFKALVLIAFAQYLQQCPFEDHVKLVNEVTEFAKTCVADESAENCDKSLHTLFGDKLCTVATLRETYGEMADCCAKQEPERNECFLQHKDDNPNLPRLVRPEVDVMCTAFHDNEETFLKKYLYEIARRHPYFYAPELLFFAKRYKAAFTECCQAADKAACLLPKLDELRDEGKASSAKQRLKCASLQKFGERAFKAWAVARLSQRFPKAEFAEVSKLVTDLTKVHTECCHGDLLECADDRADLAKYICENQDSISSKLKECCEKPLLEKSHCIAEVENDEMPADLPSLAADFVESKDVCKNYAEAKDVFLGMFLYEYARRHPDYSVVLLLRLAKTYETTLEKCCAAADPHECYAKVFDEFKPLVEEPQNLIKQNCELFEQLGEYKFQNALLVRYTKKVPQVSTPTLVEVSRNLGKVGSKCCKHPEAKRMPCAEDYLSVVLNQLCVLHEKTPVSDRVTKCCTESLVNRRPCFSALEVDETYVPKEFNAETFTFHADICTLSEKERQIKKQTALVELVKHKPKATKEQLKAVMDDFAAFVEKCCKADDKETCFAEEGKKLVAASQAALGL
Description: HSA binding assay was performed according to the method described by Valko K, et al. The basic principle of the measurements is the determination of gradient retention times of compounds on immobilized HSA column and converting these retention times to the appropriate property values using calibration. The peaks are detected and identified by UV. Calibration sets of compounds are measured before each run for which the HSA binding values are known. The retention times of the calibration set of compounds are plotted against these known values. The slope and the intercept of the obtained straight lines are used to calculate the HSA binding for the unknown compounds.

[3] = Artificial membrane permeability assay; assay type: in vitro ADME; conditions: PAMPA, pH 7.4; passive artificial membrane permeability; read-out: Permeability
Description: A 8% L-a-phosphatidylcholine (EPC) in 1% cholesterol decane solution and a 1.8% EPC in cholesterol decane solution were prepared. The lipid solution was then aliquoted into 4 mL capped vials, sealed with parafilm and stored in-20°Cfreezer. The lipid solution was then transferred from 4 mL vial into 96-well half area plate (130μL/well) for daily assay usage. An additional 50 mM phosphate buffer with 0.5% encapsin, pH at 7.4 was prepared. The assay was run by the Biomek FX and Biomek software. The assay procedure is written under the Biomek software. For one batch assay, it can test two 96-well sample plates with at least one standard on each sample plate. The total assay time was about 4 hours. 3.5 μL of lipid solution were added to the filler plate, shaken for 12 seconds, and 250 μL of buffer were added to donor side and 100 μL to the receiver side. The assay plate was shaken for 45 min before adding the compounds. The test compounds (2.5 μL) were added to the donor side. The assay was run as replicates: Assay plates1 and 2 tested the sample plate 1; assay plates 3 and 4 tested the sample plate 2. The assay plates were then incubated and shaken for 3 hours at room temperature.
The assay samples were transferred to the HPLC analysis plates and 100 μL of receiver solution were aspirated and transferred to the receiver for analysis. Similarly, another 100 μL from the donor solution were transferred to the donor analysis plate.
Compound concentration was measured by HPLC at different time-points and permeability was established as nm/sec.

[4] = Intrinsic clearance (CLint) assay, mouse liver microsomes; assay type: in vitro ADME; conditions: for % LBF Mouse: liver blood flow; for CLint Mouse: mouse liver microsomes; for half-life at 0.5 µM: mouse, pooled mouse liver microsomes, pH 7.4, read-out: Microsomal t1/2 Mouse; for CLpred Mouse: predicted metabolic clearance
Description: as §1, §2

[5] = reversed phase HPLC column (Gemini NX C18)

SMILES | MIC against Mtb H37Rv (Mtb H37Rv) | solubility kinetic at 1 h [1] | CLint Human [2] | half-life at 0.5 µM [2] | % LBF Human [2] | CLpred Human [2] | chromatographic logD (Chrom logD assay; [5]) | % HSA (human serum albumin) | Papp at 3 h [3] | % LBF Mouse [4] | CLint Mouse [4] | half-life at 0.5 µM [4] | CLpred Mouse [4] | antimycobacterial activity against Mtb H37Rv (Mtb H37Rv) | chromatographic logD (Chrom logD assay)
CC[C@H](C)[C@@H]1NC(=O)[C@H](Cc2c[nH]c3ccccc23)NC(=O)[C@@H](CCCN)NC(=O)[C@H](CC(N)=O)NC(=O)[C@H](C(C)C)NC(=O)[C@@H](CC(C)C)NC1=O [Compound 19c] (cyclo(I[dL]VN[dOrn]W)) | 7.5 µM (≈ 5.55 µg/mL) | ≥ 183 µg/mL | <0.40 mL/min/g tissue | > 139 min | <35.08% | <6.35 mL/min/kg | 1.73 | 67.10% | < 1 ×10⁻⁶ cm/s | <16.3% | <0.48 mL/min/g tissue | > 139 min | <20.50 mL/min/kg |  | 
CC[C@H](C)[C@@H]1NC(=O)[C@@H](Cc2ccc(Cl)cc2)NC(=O)[C@H](CC(C)C)NC(=O)[C@H](Cc2c[nH]c3ccccc23)NC(=O)[C@@H](CCCN)NC(=O)[C@@H](CCCN)NC1=O [Compound 18c] (cyclo(I[dOrn][dOrn]WL[dPhe(4-Cl)])) | 17.5 µM (≈ 14.4 µg/mL) | 7 µg/mL (≈ 8.51 µM) | 1.06 mL/min/g tissue | 51.7 min | 59.15% | 10.65 mL/min/kg |  | 98.70% | 8 ×10⁻⁶ cm/s | 28.4% | 0.98 mL/min/g tissue | 67.9 min | 35.80 mL/min/kg |  | 
CC[C@H](C)[C@@H]1NC(=O)[C@H]([C@@H](C)CC)NC(=O)[C@@H](CC(C)C)NC(=O)[C@H](CC(C)C)NC(=O)[C@H](Cc2c[nH]c3ccccc23)NC(=O)[C@@H](CCCN)NC1=O [Compound 12c] (cyclo(II[dOrn]WL[dL])) | 3.1 µM (≈ 2.33 µg/mL) | ≥ 206 µg/mL | 5.93 mL/min/g tissue | 9.28 min | 88.98% | 16.02 mL/min/kg | 2.94 | 96.06% | 1.9 ×10⁻⁶ cm/s | <16.39% | <0.48 mL/min/g tissue | > 139 min | <20.50 mL/min/kg |  | 
CSCC[C@@H]1NC(=O)[C@@H](CC(C)C)NC(=O)[C@H](CC(C)C)NC(=O)[C@H](Cc2c[nH]c3ccccc23)NC(=O)[C@@H](CCCN)NC(=O)[C@H](CC(N)=O)NC1=O [Compound 8c] (cyclo(L[dL]MN[dOrn]W)) | >80 µM | ≥ 164 µg/mL | 1.79 mL/min/g tissue | 30.7 min | 70.90% | 12.76 mL/min/kg | 1.78 | 73.79% | < 1 ×10⁻⁶ cm/s | <16.30% | <0.48 mL/min/g tissue | > 139 min |  | complete loss of activity | 
CC[C@H](C)[C@@H]1NC(=O)[C@@H](CC(C)C)NC(=O)[C@H](CC(C)C)NC(=O)[C@H](Cc2c[nH]c3ccccc23)NC(=O)[C@@H](CCCN)NC(=O)[C@H](COC(C)(C)C)NC1=O [Compound 11c] (cyclo(IS(tBu)[dOrn]WL[dL])) |  | 202 µg/mL (≈ 258 µM) | 3.33 mL/min/g tissue | 16.5 min | 81.90% | 14.70 mL/min/kg | 3 | 92.68% | < 0.3 ×10⁻⁶ cm/s | <16.3% | <0.48 mL/min/g tissue | > 139 min | <20.50 mL/min/kg |  | 
CC[C@H](C)[C@@H]1NC(=O)[C@@H](CC(C)C)NC(=O)[C@H](CC(C)C)NC(=O)[C@H](Cc2c[nH]c3ccccc23)NC(=O)[C@@H](CCCNC(=N)N)NC(=O)[C@H](CC(N)=O)NC1=O [Compound 13c] (cyclo(IN[dR]WL[dL])) |  | ≥ 189 µg/mL | 7.44 mL/min/g tissue | 7.4 min | 91.01% | 16.38 mL/min/kg |  | 87.55% | 1.1 ×10⁻⁶ cm/s | 29.00% | 1.01 mL/min/g tissue | 63 min | 36.60 mL/min/kg |  | 2.05
CC(C)C[C@H]1NC(=O)[C@@H](Cc2ccc(Cl)cc2)NC(=O)[C@H](Cc2c[nH]c3ccccc23)NC(=O)[C@@H](CCCN)NC(=O)[C@H](CC(N)=O)NC(=O)[C@H](C(C)C)NC1=O [Compound 17c] (cyclo(N[dOrn]W[dPhe(4-Cl)][dL]V)) | 30 µM (≈ 24.3 µg/mL) | ≥ 230 µg/mL | <0.40 mL/min/g tissue | > 139 min | <35.08% | <6.35 mL/min/kg | 2.12 | 93.83% | 1.7 ×10⁻⁶ cm/s | 17.9% | 0.54 mL/min/g tissue | 124 min | 22.60 mL/min/kg |  | 
CC[C@H](C)[C@@H]1NC(=O)[C@H](CC(C)C)NC(=O)[C@H](Cc2c[nH]c3ccccc23)NC(=O)[C@@H](CCCN)NC(=O)[C@H](CC(N)=O)NC(=O)[C@H](C(C)C)NC1=O [Compound 20c] (cyclo(IVN[dOrn]WL)) | >80 µM | ≥ 195 µg/mL | <0.40 mL/min/g tissue | > 139 min | <35.08% | <6.35 mL/min/kg | 1.83 | 83.67% | < 0.3 ×10⁻⁶ cm/s | <16.3% | <0.48 mL/min/g tissue | > 139 min | <20.50 mL/min/kg | completely abolished the activity | 
